How the values were obtained:
human σ1 receptor = biological target: T1, human σ1 receptor (Homo sapiens, UniProt Q99720); test: Human σ1 receptor radioligand assay ([3H](+)-pentazocine, transfected HEK-293 membranes); conditions: class scale, read-out: Binding σ-1 Ki
T1 construct: expressed in transfected cells; host or cells: HEK-293
Outline: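 Membranes (7 μg) from transfected HEK-293 cells were incubated with 5 nM [3H](+)-pentazocine in 50 mM Tris-HCl, pH 8, for 120 minutes at 37° C, with 10 μM haloperidol defining non-specific binding. Bound radioactivity was filtered and counted by scintillation. Results are % inhibition at 1 or 10 μM or Ki from five concentrations.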

human σ2/TMEM97 receptor = biological target: T2, human σ2/TMEM97 receptor (Homo sapiens, UniProt Q5BJF2); test: Binding assay to human σ2/TMEM97 receptor ([3H]-DTG, transfected HEK-293 membranes); conditions: class scale, read-out: Binding σ-2 Ki
T2 construct: expressed in transfected cells; host or cells: HEK-293
T2 sequence (Q5BJF2 whole entry): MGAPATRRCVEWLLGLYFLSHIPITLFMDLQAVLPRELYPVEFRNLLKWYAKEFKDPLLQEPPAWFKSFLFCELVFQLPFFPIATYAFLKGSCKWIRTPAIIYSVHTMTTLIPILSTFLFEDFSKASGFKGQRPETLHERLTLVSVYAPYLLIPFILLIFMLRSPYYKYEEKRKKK
Outline: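 Membranes (15 μg) from transfected HEK-293 incubated 120 min at 25 °C with 10 nM [3H]-DTG in 50 mM Tris-HCl pH 8.0; nonspecific binding with 10 μM haloperidol. Filtration and scintillation counting; % inhibition at 1 or 10 μM, or Ki from five concentrations.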

T1 sequence (Q99720 whole entry): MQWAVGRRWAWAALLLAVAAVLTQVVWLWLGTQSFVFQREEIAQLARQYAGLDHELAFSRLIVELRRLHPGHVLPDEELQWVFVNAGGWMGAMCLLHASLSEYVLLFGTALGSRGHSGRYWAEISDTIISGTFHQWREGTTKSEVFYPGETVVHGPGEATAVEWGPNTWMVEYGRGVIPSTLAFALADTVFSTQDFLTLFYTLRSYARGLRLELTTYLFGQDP

Row | Compound | Ki (human σ1 receptor) | Ki (human σ2/TMEM97 receptor)
1 | Cc1cc(-c2nn(C)c(Cl)c2CN2CCCCC(NCCC(C)C)C2=O)no1 (stereo not shown) [Example 117, 1-((5-Chloro-1-methyl-3-(5-methylisoxazol-3-yl)-1H-pyrazol-4-yl)methyl)-3-(isopentylamino)azepan-2-one] | 0.1 to 0.5 µM | > 1 µM
2 | Cc1cc(-c2nn(C)c(Cl)c2CN2CC3(CCN(CCC(C)(C)C)C3)C2)no1 [Example 51, 3-(5-Chloro-4-((6-(3,3-dimethylbutyl)-2,6-diazaspiro[3.4]octan-2-yl)methyl)-1-methyl-1H-pyrazol-3-yl)-5-methylisoxazole] | < 0.1 µM | < 0.1 µM
3 | Cc1cc(-c2nn(C)c(Cl)c2CN2CCC3(CCN(Cc4ccccc4)CC3)CC2)no1 [Example 66, 3-(4-((9-Benzyl-3,9-diazaspiro[5.5]undecan-3-yl)methyl)-5-chloro-1-methyl-1H-pyrazol-3-yl)-5-methylisoxazole] | < 0.1 µM | < 0.1 µM
4 | Cc1cc(-c2nn(C)c(Cl)c2CN2CCC3(CC2)CCN(CCC(C)(C)C)C3)no1 [Example 50, 3-(5-Chloro-4-((2-(3,3-dimethylbutyl)-2,8-diazaspiro[4.5]decan-8-yl)methyl)-1-methyl-1H-pyrazol-3-yl)-5-methylisoxazole] | 0.1 to 0.5 µM | < 0.1 µM
5 | Cc1cc(-c2nn(C)c(Cl)c2CN2CCC(CNCCc3ccccc3)C2)no1 (stereo not shown) [Example 45, N-((1-((5-Chloro-1-methyl-3-(5-methylisoxazol-3-yl)-1H-pyrazol-4-yl)methyl)pyrrolidin-3-yl)methyl)-2-phenylethanamine] | 0.1 to 0.5 µM | 0.1 to 0.5 µM
6 | Cc1cc(-c2nn(C)c(Cl)c2C(=O)N2CCC3(CCN(CCC(C)C)CC3)CC2)no1 [Example 90, (5-Chloro-1-methyl-3-(5-methylisoxazol-3-yl)-1H-pyrazol-4-yl)(9-isopentyl-3,9-diazaspiro[5.5]undecan-3-yl)methanone] | 0.5 to 1 µM | 0.1 to 0.5 µM
7 | Cc1cc(-c2nn(C)c(Cl)c2CN2CC[C@@]3(CCN(CCC(C)(C)C)C3)C2)no1 [Example 70, (R)-3-(5-chloro-4-((7-(3,3-dimethylbutyl)-2,7-diazaspiro[4.4]nonan-2-yl)methyl)-1-methyl-1H-pyrazol-3-yl)-5-methylisoxazole] | < 0.1 µM | < 0.1 µM
8 | Cc1cc(-c2nn(C)c(Cl)c2C(=O)N2CCCCC(N(C)CCC(C)C)C2)no1 (stereo not shown) [Example 111, (5-Chloro-1-methyl-3-(5-methylisoxazol-3-yl)-1H-pyrazol-4-yl)(3-(isopentyl(methyl)amino)azepan-1-yl)methanone] | 0.1 to 0.5 µM | 0.5 to 1 µM
9 | Cc1cc(-c2nn(C)c(Cl)c2CN2CCC3(CCN(CCC(C)(C)C)CC3)CC2=O)no1 [Example 115, 3-((5-Chloro-1-methyl-3-(5-methylisoxazol-3-yl)-1H-pyrazol-4-yl)methyl)-9-(3,3-dimethylbutyl)-3,9-diazaspiro[5.5]undecan-2-one] | 0.1 to 0.5 µM | < 0.1 µM
10 | Cc1cc(-c2nn(C)c(Cl)c2CN2CCCC(NCCC(C)(C)C)CC2)no1 (stereo not shown) [Example 23, 1-((5-Chloro-1-methyl-3-(5-methylisoxazol-3-yl)-1H-pyrazol-4-yl)methyl)-N-(3,3-dimethylbutyl)azepan-4-amine] | 0.1 to 0.5 µM | < 0.1 µM
11 | Cc1cc(-c2nn(-c3ccccc3)c(Cl)c2C(=O)N2CCC3(CCN(CCC(C)(C)C)CC3)CC2)no1 [Example 101, (5-Chloro-3-(5-methylisoxazol-3-yl)-1-phenyl-1H-pyrazol-4-yl)(9-(3,3-dimethylbutyl)-3,9-diazaspiro[5.5]undecan-3-yl)methanone] | < 0.1 µM | < 0.1 µM
12 | Cc1cc(-c2nn(C)c(Cl)c2CN2CCCC(NCCC(C)C)CC2)no1 (stereo not shown) [Example 24, 1-((5-Chloro-1-methyl-3-(5-methylisoxazol-3-yl)-1H-pyrazol-4-yl)methyl)-N-isopentylazepan-4-amine] | > 1 µM | < 0.1 µM
13 | CC(C)CCNC1CCCCN(Cc2c(-c3ccon3)nn(C)c2Cl)C1 (stereo not shown) [Example 34, 1-((5-Chloro-3-(isoxazol-3-yl)-1-methyl-1H-pyrazol-4-yl)methyl)-N-isopentylazepan-3-amine] | 0.5 to 1 µM | 0.1 to 0.5 µM
14 | Cc1cc(-c2nn(C)c(Cl)c2CN2CCCCC(N(C)CCC(C)C)C2)no1 (stereo not shown) [Example 80, 1-((5-Chloro-1-methyl-3-(5-methylisoxazol-3-yl)-1H-pyrazol-4-yl)methyl)-N-isopentyl-N-methylazepan-3-amine] | 0.1 to 0.5 µM | 0.5 to 1 µM
15 | Cc1cc(-c2nn(C)c(Cl)c2CN2CC[C@]3(C2)C[C@H](NCCC(C)(C)C)C3)no1 [Example 75, (2s,4r)-6-((5-Chloro-1-methyl-3-(5-methylisoxazol-3-yl)-1H-pyrazol-4-yl)methyl)-N-(3,3-dimethylbutyl)-6-azaspiro[3.4]octan-2-amine] | 0.5 to 1 µM | < 0.1 µM
16 | Cc1cc(-c2nn(C)c(Cl)c2C(=O)N2CCCCC(NCCC(C)C)C2)no1 (stereo not shown) [Example 84, (5-Chloro-1-methyl-3-(5-methylisoxazol-3-yl)-1H-pyrazol-4-yl)(3-(isopentylamino)azepan-1-yl)methanone] | > 1 µM | 0.1 to 0.5 µM
17 | CCn1nc(-c2cc(C)on2)c(C(=O)N2CCC3(CCN(CCC(C)(C)C)CC3)CC2)c1Cl [Example 99, (5-Chloro-1-ethyl-3-(5-methylisoxazol-3-yl)-1H-pyrazol-4-yl)(9-(3,3-dimethylbutyl)-3,9-diazaspiro[5.5]undecan-3-yl)methanone] | 0.5 to 1 µM | < 0.1 µM
18 | Cc1cc(-c2nn(C)c(Cl)c2CN2CC[C@@H](CNCCc3ccccc3)C2)no1 [Example 72, (S)-N-((1-((5-chloro-1-methyl-3-(5-methylisoxazol-3-yl)-1H-pyrazol-4-yl)methyl)pyrrolidin-3-yl)methyl)-2-phenylethanamine] | 0.5 to 1 µM | 0.1 to 0.5 µM

Now from value to compound:

Row | Ki (human σ1 receptor) | Ki (human σ2/TMEM97 receptor) | Compound
19 | < 0.1 µM | < 0.1 µM | CCc1cc(-c2nn(CC)c(Cl)c2C(=O)NC2CC3(CCN(CCC(C)(C)C)CC3)C2)no1 [Example 136, 5-Chloro-N-(7-(3,3-dimethylbutyl)-7-azaspiro[3.5]nonan-2-yl)-1-ethyl-3-(5-ethylisoxazol-3-yl)-1H-pyrazole-4-carboxamide]
20 | 0.1 to 0.5 µM | < 0.1 µM | Cc1cc(-c2nn(-c3ccncc3)c(Cl)c2C(=O)N2CCC3(CCN(CCC(C)(C)C)CC3)CC2)no1 [Example 170, (5-Chloro-3-(5-methylisoxazol-3-yl)-1-(pyridin-4-yl)-1H-pyrazol-4-yl)(9-(3,3-dimethylbutyl)-3,9-diazaspiro[5.5]undecan-3-yl)methanone]
21 | 0.1 to 0.5 µM | < 0.1 µM | CCn1nc(-c2cc(C)on2)c(C(=O)N2CC3(CCN(CCC(C)(C)C)CC3)C2)c1Cl [Example 184, (5-Chloro-1-ethyl-3-(5-methylisoxazol-3-yl)-1H-pyrazol-4-yl)(7-(3,3-dimethylbutyl)-2,7-diazaspiro[3.5]nonan-2-yl)methanone]
22 | < 0.1 µM | < 0.1 µM | CCn1nc(-c2cc(C)on2)c(C(=O)NC2CCC3(CC2)CN(CCC(C)(C)C)C3)c1Cl [Example 134, 5-Chloro-N-(2-(3,3-dimethylbutyl)-2-azaspiro[3.5]nonan-7-yl)-1-ethyl-3-(5-methylisoxazol-3-yl)-1H-pyrazole-4-carboxamide]
23 | 0.1 to 0.5 µM | < 0.1 µM | CCn1nc(-c2cc(C(C)C)on2)c(C(=O)N2CCC3(CCN(CCC(C)(C)C)CC3)CC2)c1Cl [Example 192, (5-Chloro-1-ethyl-3-(5-isopropylisoxazol-3-yl)-1H-pyrazol-4-yl)(9-(3,3-dimethylbutyl)-3,9-diazaspiro[5.5]undecan-3-yl)methanone]
24 | > 1 µM | < 0.1 µM | Cc1cc(-c2nn(C)c(Cl)c2C(=O)N2CC[C@]3(C2)C[C@@H](NCCC(C)(C)C)C3)no1 [Example 123, (5-Chloro-1-methyl-3-(5-methylisoxazol-3-yl)-1H-pyrazol-4-yl)((2r,4s)-2-((3,3-dimethylbutyl)amino)-6-azaspiro[3.4]octan-6-yl)methanone]
25 | 0.1 to 0.5 µM | 0.1 to 0.5 µM | Cc1cc(-c2nn(C)c(Cl)c2C(=O)N2CCCC(CN(C)CCC(C)(C)C)C2)no1 (stereo not shown) [Example 121, (5-Chloro-1-methyl-3-(5-methylisoxazol-3-yl)-1H-pyrazol-4-yl)(3-(((3,3-dimethylbutyl)(methyl)amino)methyl)piperidin-1-yl)methanone]
26 | < 0.1 µM | < 0.1 µM | Cc1cccc(-c2nn(C)c(Cl)c2C(=O)NC2CC3(CCN(CCC(C)(C)C)CC3)C2)n1 [Example 141, 5-Chloro-N-(7-(3,3-dimethylbutyl)-7-azaspiro[3.5]nonan-2-yl)-1-methyl-3-(6-methylpyridin-2-yl)-1H-pyrazole-4-carboxamide]
27 | 0.5 to 1 µM | < 0.1 µM | CCn1cc(-c2nn(C)c(Cl)c2C(=O)NC2CC3(CCN(CCC(C)(C)C)CC3)C2)cn1 [Example 145, 5-Chloro-N-(7-(3,3-dimethylbutyl)-7-azaspiro[3.5]nonan-2-yl)-1′-ethyl-1-methyl-1H,1′H-[3,4′-bipyrazole]-4-carboxamide]
28 | < 0.1 µM | < 0.1 µM | Cn1nc(-c2cccc(C(F)(F)F)n2)c(CC(=O)NC2CCN(CCC(C)(C)C)CC2)c1Cl [Example 222, 2-(5-Chloro-1-methyl-3-(6-(trifluoromethyl)pyridin-2-yl)-1H-pyrazol-4-yl)-N-(1-(3,3-dimethylbutyl)piperidin-4-yl)acetamide]
29 | > 1 µM | < 0.1 µM | CCc1nc(C)c(-c2nn(C)c(Cl)c2C(=O)N2CCC3(CCN(CCC(C)(C)C)CC3)CC2)o1 [Example 176, (5-Chloro-3-(2-ethyl-4-methyloxazol-5-yl)-1-methyl-1H-pyrazol-4-yl)(9-(3,3-dimethylbutyl)-3,9-diazaspiro[5.5]undecan-3-yl)methanone]
